This is an account of results in patent US20100160432A1, “Curative drug for neurodegenerative diseases” (priority 2007, published 2010).

For one data set, the system named is SH-SY5Y cells. In words: Cytoprotection against linoleic acid hydroperoxide (LA-OOH) cell disorder, SH-SY5Y cells, methylene blue dye uptake. Format: cell-based, human. The conditions noted are these: for Protection Rate (%) / Survival Rate (%): SH-SY5Y cells, LA-OOH 70 μM, about 20 h. On the procedure:
(§1) Of the hydroquinone derivatives expressed in the aforesaid Formula 1, 2,3,5-trimethyl-hydroquinone-1-hexylether (Compound 1) was examined in comparison with vitamin E with respect to the activity of inhibiting toxicity of lipid peroxide to nerve cells. PC12 cells as a cell culture model of for human neuroblastoma-derived SH-SY5Y and rat pheochromocytoma cells were cultivated by the law of the art. A culture media was prepared in effect by adding FCS (fetal calf serum) to Dulbecco's Eagle medium (DMEM) and used further with the addition of NaHCO3 (3.7 g/L), penicillin G (100 U/mL) and Streptomycin ([…]). A cultivation was performed by seeding 6×10^4 SH-SY5Y cells and 4×10^4 PC12 cells in a CO2 incubator at 37° C. using a microplate with 24 macroscopic pores. After 48 hours, the aforesaid Compound 1 or vitamin E was added thereto. Then after about 30 minutes, 70 μM of linoleic acid hydroperoxide were added thereto for the SH-SY5Y cells and 35 μM of the same were added for PC12 cells. After cultivation for about 20 hours, the number of surviving cells was measured.
(§2) The measurement of the surviving cells was made by a Methylene blue dye uptake method. To be more specific, the cells were rinsed twice with PBS (phosphate buffered saline free from Mg and Ca), and then, fixated with 10% formalin for 5 minutes. Further, the cells were rinsed three times with distilled water, stained with 0.05% methylene blue solution for 60 minutes, and rinsed three times with distilled water. Then, 20 minutes after adding 0.33N HCl thereto, the absorbance of the cells was measured at 665 nm. The survival rate and protection rate of the cells were calculated on the basis of the measured result by the following equation.
(§3) Cell survival rate (%)=[absorbance of treated cells with testing additives]/[absorbance of non-treated cells]×100
(§4) Protection rate (%)={1−(100−[survival rate of treated cells with testing additives])/(100−[survival rate of cells with no additives])}×100

The conditions of data set [1]: compared with vitamin E, cited from earlier work.
For a further data set, the system named is NO production. As to conditions: compared with vitamin E; cited from earlier work.
The test system of another data set is PC12 cells. Put plainly: Cytoprotection against linoleic acid hydroperoxide (LA-OOH) cell disorder, PC12 cells, methylene blue dye uptake. In kind it is cell-based, rat. The conditions noted are these: for Protection Rate (%) / Survival Rate (%): LA-OOH 35 μM, about 20 h; for protection rate of PC12 cells (up to) / survival rate of PC12 cells (up to): highest value over the doses tested. As for the experimental part: as §1, §2, §3, §4

Where two headings read alike, the source gives them in different places.

Consider `CCCCCCOc1cc(C)c(O)c(C)c1C` [Compound 1, 2,3,5-trimethyl-hydroquinone-1-hexylether], for which the “toxicity in comparison with vitamin E” value in the data set with SH-SY5Y cells (SH-SY5Y cells and PC12 cells, from Table 1 and Table 2) is listed as “lower toxicity”. Moreover, the “Protection Rate (%)” value in the data set with SH-SY5Y cells (dosage 0.5 μM) worked out at 14.8%; with SH-SY5Y cells (dosage 1.0 μM), 22.1%; in the data set with SH-SY5Y cells (dosage 5.0 μM), 38.3%; in the data set on SH-SY5Y cells (dosage 10.0 μM), 33.5%; with PC12 cells (dosage 0.1 μM), 21.5%; with PC12 cells (dosage 0.5 μM) it was 80.6%. Further, the “Protection Rate (%)” value in the data set on PC12 cells (dosage 1.0 μM) was found to be 88.4%; in the data set on PC12 cells (dosage 5.0 μM) it was 88.9%. In addition, the “Survival Rate (%)” value stood at 83.41% in the data set with SH-SY5Y cells (dosage 0.5 μM); 84.83% with SH-SY5Y cells (dosage 1.0 μM); 87.97% in the data set with SH-SY5Y cells (dosage 5.0 μM); 87.04% in the data set with SH-SY5Y cells (dosage 10.0 μM); 45.68% in the data set on PC12 cells (dosage 0.1 μM); 86.57% in the data set on PC12 cells (dosage 0.5 μM). Also, the results for the “Survival Rate (%)” value in the data set with PC12 cells (dosage 1.0 μM) and in the data set on PC12 cells (dosage 5.0 μM) were 91.96% and 92.31%, respectively. For the same molecule, the “antioxidative properties relative to vitamin E” value in data set [1] is on record as “double that of vitamin E”; in data set [1] (listed as 2,3,5-trimethyl-hydroquinone-1-hexylether), “twice as strong as vitamin E”. The “NO-production inhibitory activity relative to vitamin E” value in the data set with NO production is given as 500 times as strong as vitamin E. For the same molecule, the “protection rate of PC12 cells (up to)” value in the data set on PC12 cells is recorded as “around 90%”. Further, the “survival rate of PC12 cells (up to)” value with PC12 cells is listed as “around 90%”.

As for Vitamin E [reference compound], the “Protection Rate (%)” value is 14.5% with SH-SY5Y cells (dosage 0.5 μM); −6.3% with SH-SY5Y cells (dosage 1.0 μM); −6.2% in the data set with SH-SY5Y cells (dosage 5.0 μM); 4.3% in the data set with SH-SY5Y cells (dosage 10.0 μM); 6.8% with PC12 cells (dosage 0.1 μM); 4.9% in the data set on PC12 cells (dosage 0.5 μM). Besides, the “Protection Rate (%)” value in the data set on PC12 cells (dosage 1.0 μM) is 4.8%; in the data set on PC12 cells (dosage 5.0 μM), 14.8%. The “Survival Rate (%)” value with SH-SY5Y cells (dosage 0.5 μM) is reported as 83.72%; in the data set with SH-SY5Y cells (dosage 1.0 μM), 79.77%; with SH-SY5Y cells (dosage 5.0 μM) it was 79.78%; with SH-SY5Y cells (dosage 10.0 μM), 81.78%; with PC12 cells (dosage 0.1 μM) it was 37.16%; in the data set with PC12 cells (dosage 0.5 μM), 35.88%. For the same molecule, the “Survival Rate (%)” value worked out at 35.85% with PC12 cells (dosage 1.0 μM) and 42.57% in the data set with PC12 cells (dosage 5.0 μM). Besides, in the data set with PC12 cells, the “protection rate of PC12 cells (up to)” value was “around 15%”. In the data set on PC12 cells, the “survival rate of PC12 cells (up to)” value is on record as “about 42%”.
